Measured values from patent US7786137B2, “Bicyclic derivatives as modulators of ion channels” (Vertex Pharmaceuticals Incorporated, priority 2005, dated 2010).

These compounds were tested against NaV1.3 (Homo sapiens, UniProt Q9NY46) (assay: VIPR optical membrane potential assay, NaV1.3 inhibition). Conditions: activity against NaV 1.3 channel.
NaV1.3, sequence (Q9NY46 whole entry): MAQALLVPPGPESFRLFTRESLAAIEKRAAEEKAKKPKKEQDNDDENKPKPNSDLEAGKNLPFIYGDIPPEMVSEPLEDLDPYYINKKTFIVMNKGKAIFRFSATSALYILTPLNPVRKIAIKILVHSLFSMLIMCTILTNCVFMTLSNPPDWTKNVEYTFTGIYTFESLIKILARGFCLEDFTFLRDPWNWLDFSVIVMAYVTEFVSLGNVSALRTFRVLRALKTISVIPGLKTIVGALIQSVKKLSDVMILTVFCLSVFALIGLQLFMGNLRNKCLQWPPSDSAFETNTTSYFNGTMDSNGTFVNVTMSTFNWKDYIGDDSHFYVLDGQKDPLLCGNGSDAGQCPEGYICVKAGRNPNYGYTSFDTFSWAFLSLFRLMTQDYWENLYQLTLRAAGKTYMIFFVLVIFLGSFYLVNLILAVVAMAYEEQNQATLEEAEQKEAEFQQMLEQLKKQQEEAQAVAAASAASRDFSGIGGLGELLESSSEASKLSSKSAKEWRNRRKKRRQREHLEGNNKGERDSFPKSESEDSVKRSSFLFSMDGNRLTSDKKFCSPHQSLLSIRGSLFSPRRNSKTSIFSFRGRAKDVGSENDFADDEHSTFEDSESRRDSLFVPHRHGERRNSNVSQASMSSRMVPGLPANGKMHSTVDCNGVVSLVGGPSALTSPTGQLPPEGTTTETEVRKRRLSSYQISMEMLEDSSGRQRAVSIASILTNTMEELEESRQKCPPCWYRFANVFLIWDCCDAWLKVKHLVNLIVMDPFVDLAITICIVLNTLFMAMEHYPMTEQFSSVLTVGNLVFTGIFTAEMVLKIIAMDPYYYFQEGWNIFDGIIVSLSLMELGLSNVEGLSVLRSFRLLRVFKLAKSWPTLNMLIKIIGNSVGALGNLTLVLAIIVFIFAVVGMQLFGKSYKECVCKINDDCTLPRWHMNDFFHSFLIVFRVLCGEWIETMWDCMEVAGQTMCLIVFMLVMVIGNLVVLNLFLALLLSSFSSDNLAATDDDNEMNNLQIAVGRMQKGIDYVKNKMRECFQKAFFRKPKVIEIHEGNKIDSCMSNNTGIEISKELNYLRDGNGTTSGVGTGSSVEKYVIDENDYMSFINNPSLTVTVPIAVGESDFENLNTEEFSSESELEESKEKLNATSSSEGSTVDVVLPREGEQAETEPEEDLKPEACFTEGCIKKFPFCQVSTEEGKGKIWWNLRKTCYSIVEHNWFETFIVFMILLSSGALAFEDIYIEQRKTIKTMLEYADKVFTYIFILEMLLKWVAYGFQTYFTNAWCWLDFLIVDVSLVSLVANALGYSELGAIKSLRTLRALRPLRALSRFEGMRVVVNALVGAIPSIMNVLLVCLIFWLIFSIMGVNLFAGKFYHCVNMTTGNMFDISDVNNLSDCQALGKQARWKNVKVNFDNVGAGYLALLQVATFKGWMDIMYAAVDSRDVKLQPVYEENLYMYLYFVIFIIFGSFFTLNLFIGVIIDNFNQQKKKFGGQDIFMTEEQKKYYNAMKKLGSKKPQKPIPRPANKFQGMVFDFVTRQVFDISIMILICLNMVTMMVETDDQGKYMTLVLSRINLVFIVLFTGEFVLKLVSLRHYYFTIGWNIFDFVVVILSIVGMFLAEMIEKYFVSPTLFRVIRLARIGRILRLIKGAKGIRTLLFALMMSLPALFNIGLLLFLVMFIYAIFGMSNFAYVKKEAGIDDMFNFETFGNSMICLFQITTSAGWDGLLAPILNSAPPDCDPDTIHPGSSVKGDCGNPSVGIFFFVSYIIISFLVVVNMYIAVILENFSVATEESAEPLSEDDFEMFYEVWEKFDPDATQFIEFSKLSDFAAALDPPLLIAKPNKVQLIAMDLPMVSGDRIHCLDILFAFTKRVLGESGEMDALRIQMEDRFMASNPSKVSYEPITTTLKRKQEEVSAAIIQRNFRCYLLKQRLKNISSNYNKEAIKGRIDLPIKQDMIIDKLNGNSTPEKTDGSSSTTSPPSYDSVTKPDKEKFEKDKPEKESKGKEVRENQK
Assay type: cell-based
Parameters: expressed in transfected cells; host or cells: HEK293
Protocol: Antagonist properties of test compounds were assessed as follows. Cells expressing the NaV of interest were placed into microtiter plates. After an incubation period, the cells were stained with fluorescent dyes sensitive to the transmembrane potential. The test compounds were added to the microtiter plate. The cells were stimulated with either a chemical or electrical means to evoke a NaV dependent membrane potential change from unblocked channels, which was detected and measured with trans-membrane potential-sensitive dyes. Antagonists were detected as a decreased membrane potential response to the stimulus.
The following is an example of how NaV1.3 inhibition activity is measured using the optical membrane potential method#2. Other subtypes are performed in an analogous mode in a cell line expressing the NaV of interest.
HEK293 cells stably expressing NaV1.3 are plated into 96-well microtiter plates. After an appropriate incubation period, the cells are stained with the voltage sensitive dyes CC2-DMPE/DiSBAC2(3) as follows.
2× CC2-DMPE=20 μM CC2-DMPE: 10 mM CC2-DMPE is vortexed with an equivalent volume of 10% pluronic, followed by vortexing in required amount of HBSS containing 10 mM HEPES. Each cell plate will require 5 mL of 2× CC2-DMPE. 50 μL of 2× CC2-DMPE is to wells containing washed cells, resulting in a 10 μM final staining concentration. The cells are stained for 30 minutes in the dark at RT.
2× DISBAC2(3) with ABSC1=6 μM DISBAC2(3) and 1 mM ABSC1: The required amount of 10 mM DISBAC2(3) is added to a 50 ml conical tube and mixed with 1 μL 10% pluronic for each mL of solution to be made and vortexed together. Then HBSS/HEPES is added to make up 2× solution. Finally, the ABSC1 is added.
The 2× DiSBAC2(3) solution can be used to solvate compound plates. Note that compound plates are made at 2× drug concentration. Wash stained plate again, leaving residual volume of 50 μL. Add 50 μL/well of the 2× DiSBAC2(3) w/ABSC1. Stain for 30 minutes in the dark at RT.
The instrument comprises a microtiter plate handler, an optical system for exciting the coumarin dye while simultaneously recording the coumarin and oxonol emissions, a waveform generator, a current- or voltage-controlled amplifier, and a device for inserting electrodes in well. Under integrated computer control, this instrument passes user-programmed electrical stimulus protocols to cells within the wells of the microfilter plate.
Insert or use electrodes into each well to be assayed.
Use the current-controlled amplifier to deliver stimulation wave pulses for 3 s. Two seconds of pre-stimulus recording are performed to obtain the un-stimulated intensities. Five seconds of post-stimulation recording are performed to examine the relaxation to the resting state.
Data are analyzed and reported as normalized ratios of background-subtracted emission intensities measured in the 460 nm and 580 nm channels. Background intensities are then subtracted from each assay channel. Background intensities are obtained by measuring the emission intensities during the same time periods from identically treated assay wells in which there are no cells. The response as a function of time is then reported as the ratios obtained using the following formula: […]
The data is further reduced by calculating the initial (Ri) and final (Rf) ratios. These are the average ratio values during part or all of the pre-stimulation period, and during sample points during the stimulation period. The response to the stimulus ? =Rf/Ri is then calculated.
Control responses are obtained by performing assays in the presence of a compound with the desired properties (positive control), such as tetracaine, and in the absence of pharmacological agents (negative control). Responses to the negative (N) and positive (P) controls are calculated as above. The compound antagonist activity A is defined as:
[formula] where R is the ratio response of the test compound.
`COc1cccc(CCC(=O)N2CCc3cc(S(=O)(=O)Nc4nccs4)ccc32)c1` [Compound 192] showed an IC50 of less than 2 µM.
In the case of `O=C(c1ccccc1F)N1CCc2cc(S(=O)(=O)Nc3ncns3)ccc21` [Compound 34], the IC50 is reported as greater than 5 µM.
`CC(Oc1ccccc1Cl)C(=O)n1ccc2cc(S(=O)(=O)Nc3nccs3)ccc21` (stereo not drawn) [Compound 160] showed an IC50 of 2 to 5 µM.
`O=C(CN1CCc2ccc(Cl)cc2C1)N1CCc2cc(S(=O)(=O)Nc3nccs3)ccc21` [Compound 44] gave an IC50 of less than 2 µM.
Compound `O=C(c1ccc(F)cc1F)N1CCCc2cc(S(=O)(=O)Nc3nccs3)ccc21` [Compound 95] has an IC50 greater than 5 µM.
With `C[C@H](C(=O)N1CCc2cc(S(=O)(=O)Nc3ncns3)ccc21)n1ccc2c(F)cccc21` [Compound 93] the IC50 was less than 2 µM.
Work on `CC(C)(C)c1ccc(OCC(=O)N2CCCc3cc(S(=O)(=O)Nc4ncns4)ccc32)cc1` [Compound 139] yielded an IC50 of less than 2 µM.
For `C[C@H](C(=O)N1Cc2ccc(S(=O)(=O)Nc3ncns3)cc2C1)n1ccc2c(F)cccc21` [Compound 94], the IC50 was less than 2 µM.
Compound `COc1cc(C(=O)N2CCc3cc(S(=O)(=O)Nc4nccs4)ccc32)ccc1C` [Compound 178] has an IC50 of 2 to 5 µM.
`O=C(c1ccc(C(F)(F)F)cc1)N1CCc2cc(S(=O)(=O)Nc3nccs3)ccc21` [Compound 166] gave an IC50 of less than 2 µM.
`O=C(c1ccc(Cl)c(Cl)c1)N1CCc2cc(S(=O)(=O)Nc3ncns3)ccc21` [Compound 89] showed an IC50 of less than 2 µM.
With `O=C(c1ccc(F)cc1)N1Cc2ccc(S(=O)(=O)Nc3nccs3)cc2C1` [Compound 3] the IC50 was 2 to 5 µM.
`O=C(Cc1ccc(F)cc1F)N1CCc2cc(S(=O)(=O)Nc3nccs3)ccc21` [Compound 196] was tested, and the IC50 was less than 2 µM.
`Cc1ccc(C(=O)N2CCc3cc(S(=O)(=O)Nc4nccs4)ccc32)cc1` [Compound 47] gave an IC50 of less than 2 µM.
`O=C(CN1CCCc2cc(Cl)ccc21)N1CCc2cc(S(=O)(=O)Nc3ccncn3)ccc21` [Compound 133] showed an IC50 greater than 5 µM.
Compound `O=C(Cc1ccccc1)N1CCc2cc(S(=O)(=O)Nc3nccs3)ccc21` [Compound 188] has an IC50 of less than 2 µM.
`O=C(CCn1ccc2cc(Cl)ccc21)N1CCc2cc(S(=O)(=O)Nc3nccs3)ccc21` [Compound 209] showed an IC50 of less than 2 µM.
`O=C(CCCOc1ccc(Cl)cc1Cl)N1CCc2cc(S(=O)(=O)Nc3ncns3)ccc21` [Compound 33] was tested, and the IC50 was less than 2 µM.
For `Cc1ccccc1OCC(=O)N1CCc2cc(S(=O)(=O)Nc3nccs3)ccc21` [Compound 134], the IC50 was less than 2 µM.
`O=C(c1ccc(Cl)cc1Cl)N1CCc2cc(S(=O)(=O)Nc3nccs3)ccc21` [Compound 116] was tested, and the IC50 was less than 2 µM.
`O=C(COc1ccc(Cl)cc1Cl)n1ccc2cc(S(=O)(=O)Nc3nccs3)ccc21` [Compound 183] was tested, and the IC50 was 2 to 5 µM.
`CC(Oc1ccccc1)C(=O)N1CCc2cc(S(=O)(=O)Nc3ncns3)ccc21` (stereo not drawn) [Compound 125] showed an IC50 of less than 2 µM.
`O=C(c1cc(Cl)ccc1Cl)n1ccc2cc(S(=O)(=O)Nc3nccs3)ccc21` [Compound 162] showed an IC50 of 2 to 5 µM.
With `O=C(c1ccc(F)c(F)c1F)N1CCc2cc(S(=O)(=O)Nc3ncns3)ccc21` [Compound 6] the IC50 was 2 to 5 µM.
In the case of `O=C(c1cc(F)ccc1F)N1CCCc2cc(S(=O)(=O)Nc3nccs3)ccc21` [Compound 70], the IC50 is reported as greater than 5 µM.
With `O=C(c1ccccc1F)N1CCCc2cc(S(=O)(=O)Nc3nccs3)ccc21` [Compound 96] the IC50 was greater than 5 µM.
In the case of `Cc1ccccc1CNCCN1CCc2cc(S(=O)(=O)Nc3nccs3)ccc21` [Compound 99], the IC50 is reported as greater than 5 µM.
With `Cc1ccc(OCC(=O)N2CCc3cc(S(=O)(=O)Nc4ncns4)ccc32)cc1C` [Compound 97] the IC50 was less than 2 µM.
`CC(C(=O)N1Cc2ccc(S(=O)(=O)Nc3nccs3)cc2C1)n1ccc2ccccc21` (stereo not drawn) [Compound 17] was tested, and the IC50 was less than 2 µM.
`O=C(COc1ccc(Cl)cc1)N1CCc2cc(S(=O)(=O)Nc3nccs3)ccc21` [Compound 49] was tested, and the IC50 was less than 2 µM.
Compound `O=C(COc1cccc(Cl)c1)N1CCCc2cc(S(=O)(=O)Nc3nccs3)ccc21` [Compound 111] has an IC50 of less than 2 µM.
`O=C(CCCOc1ccc(Cl)c(Cl)c1)N1Cc2ccc(S(=O)(=O)Nc3ncns3)cc2C1` [Compound 32] gave an IC50 of less than 2 µM.
In the case of `O=C(Cc1ccc(C(F)(F)F)cc1)N1CCc2cc(S(=O)(=O)Nc3nccs3)ccc21` [Compound 63], the IC50 is reported as less than 2 µM.
